Consider 20 compounds from patent US6787651B2, “Substituted indoles, pharmaceutical compounds containing such indoles and their use as PPAR-γ binding agents” (SmithKline Beecham Corporation, priority 2000, dated 2004).

Molecules are shown by their SMILES.

Data set [1] concerns the target T1, PPARγ ligand binding domain (LBD) (amino acids 195-475) (Homo sapiens, UniProt P37231).
T1 construct: polyHis; made in house; host or cells: Escherichia coli
T1 sequence (P37231 195-475 isoform P37231-2): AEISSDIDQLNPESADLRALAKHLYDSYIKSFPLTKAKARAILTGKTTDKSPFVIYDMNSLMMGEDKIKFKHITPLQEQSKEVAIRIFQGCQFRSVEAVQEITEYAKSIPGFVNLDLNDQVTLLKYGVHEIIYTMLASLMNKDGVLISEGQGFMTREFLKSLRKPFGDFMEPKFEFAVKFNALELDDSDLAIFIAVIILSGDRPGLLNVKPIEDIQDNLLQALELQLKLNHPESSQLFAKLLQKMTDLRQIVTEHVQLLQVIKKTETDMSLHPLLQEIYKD
Nature of the data set: PPAR-γ binding assay (spin plate / gel filtration binding assay, displacement of [3H]BRL 49653). The settings on record: read-out: IC50 range in the PPAR-γ Binding Assay. As for the experimental part: The activity of a given compound in binding to PPAR-γ can be assayed routinely according to procedures known in the art. […] The PPAR-γ binding assay described below was used to determine the PPAR-γ binding activities of the compounds of the invention.
Compounds were tested for their ability to bind to PPARγ using a spin plate assay (gel filtration binding assay). […] Each compound was tested in triplicate. […] The plates were centrifuged (Beckman GS-6R) at 2500 rpm for 5 minutes, 170 μl Scitisafe® scintillation fluid (Fisher) was added to each well, the plates were sealed, and after 1 hour, were counted in a Wallac MicroBeta counter. The amount of nonspecific binding, as assessed by control wells containing 10 μM of the corresponding unlabeled ligand, was subtracted from each data point. For each compound tested, the data was averaged and plots of ligand concentration versus CPM of radioligand bound were constructed. Apparent IC50 values were estimated from nonlinear least-squares fit of the data assuming simple competitive binding.
On the technique in general: In gel filtration, larger molecules generally elute earlier.

The IC50 is the concentration needed to halve the response being measured. Broadly, the melting point is the temperature, or range, at which the solid turns liquid. Regarding `COc1ccc(-c2c(C(=O)O)n(Cc3cccc(OC)c3)c3c(N(C)C(=O)C4CC4)cccc23)cc1` [Example 303], the melting point is 98 °C (dec.). Moreover, the IC50 in data set [1] fell in the range of 10 to 10000 nM.
`Cc1cccc(-c2c(C(=O)O)n(Cc3cccc(OCC4CC4)c3)c3ccccc23)c1` [Example 299] registered a melting point of 58 to 60 °C. In addition, the IC50 in data set [1] was 0.1 to 9.99 nM.
For `COc1cccc(Cn2c(C(=O)O)c(-c3cccc(C(=O)NC4CC4)c3)c3ccccc32)c1` [Example 328] the same measures were 204 °C and 10 to 10000 nM.
For `O=C(O)c1c(-c2cc3ccccc3o2)c2ccccc2n1Cc1cccc(C(F)(F)F)c1` [Example 235] the same measures were 211 to 214 °C and 0.1 to 9.99 nM.
For `COc1cccc(Cn2c(C(=O)O)c(-c3cccc(NC(=O)NC4CC4)c3)c3ccccc32)c1` [Example 294] the same measures were 110 °C (dec.) and 10 to 10000 nM.
In turn, `O=C(O)c1c(-c2ccc(OCC3CC3)cc2)c2ccccc2n1Cc1ccc(F)cc1` [Example 341] gave a melting point of 197 to 198 °C. For the same compound, the IC50 in data set [1] lay within 0.1 to 9.99 nM.
For `COc1cccc(Cn2c(C(=O)O)c(-c3ccc(C(C)(C)C)cc3)c3cc4c(cc32)OCO4)c1` [Example 277] the same measures were 179.1 to 179.7 °C and 0.1 to 9.99 nM.
Regarding `COc1cccc(Cn2c(C(=O)O)c(-c3ccc(C(C)(C)C)cc3)c3cccc(NC(=O)NC4CC4)c32)c1` [Example 291], the melting point is 168 °C (dec.). Moreover, the IC50 in data set [1] was in the range of 10 to 10000 nM.
For `COc1ccc(Cc2c(C(=O)O)n(CC3CC3)c3ccccc23)cc1` [Example 230, 1-(Cyclopropylmethyl)-3-[(4-methoxyphenyl)methyl]indole-2-carboxylic acid] the same measures were 162 to 163 °C and 10 to 10000 nM.
As to `COc1cccc(Cn2c(C(=O)O)c(-c3cccc(NC(=O)C4CCCC4)c3)c3ccccc32)c1` [Example 327], the melting point was 133 °C (dec.). Further, the IC50 in data set [1] fell in the range of 10 to 10000 nM.
The compound `COc1cccc(Cn2c(C(=O)O)c(-c3ccc(C(C)(C)C)cc3)c3cc(COCC4CC4)ccc32)c1` [Example 266] returned a melting point of 79 to 80 °C. Also, the IC50 in data set [1] is 0.1 to 9.99 nM.
`COc1ccc(-c2c(C(=O)O)n(Cc3cccc(OCC4CC4)c3)c3ccccc23)cc1` [Example 287] had a melting point of 168 °C. Also, the IC50 in data set [1] lay in the range of 0.1 to 9.99 nM.
For `COc1ccc(-c2c(C(=O)O)n(Cc3cccc(OC)c3)c3ccc(C(C)=O)cc23)cc1` [Example 301] the same measures were 190 °C (dec.) and 10 to 10000 nM.
`COc1cccc(Cn2c(C(=O)O)c(-c3ccc(C(C)(C)C)cc3)c3cc(NCC4CC4)ccc32)c1` [Example 335] came in with a melting point of 180 to 181 °C. In data set [1], the IC50 was in the range of 0.1 to 9.99 nM.
For `CC(C)c1cccc(-c2c(C(=O)O)n(Cc3cccc(OCC4CC4)c3)c3ccccc23)c1` [Example 284] the same measures were 204 °C and 0.1 to 9.99 nM.
For `O=C(O)c1c(C#Cc2ccccc2)c2ccccc2n1Cc1cccc(C(F)(F)F)c1` [Example 244], the melting point fell in the range of 165 to 167 °C. Further, the 50% inhibitory concentration (IC50) in data set [1] was in the range of 0.1 to 9.99 nM.
The compound `COc1cccc(Cn2c(C(=O)O)c(-c3cccc(C(=O)NC4CCCC4)c3)c3ccccc32)c1` [Example 329] returned a melting point of 108 °C. Besides, in data set [1], the IC50 fell in the range of 10 to 10000 nM.
For `COc1cccc(Cn2c(C(=O)O)c(-c3ccc(C(C)(C)C)cc3)c3cc(C4CCCC4)ccc32)c1` [Example 273] the same measures were 192 to 193 °C and 0.1 to 9.99 nM.
The matching figures for `COc1cccc(Cn2c(C(=O)O)c(-c3ccc(C(C)(C)C)cc3)c3cccc(N(C)C(=O)N(C)C4CC4)c32)c1` [Example 293]: 112 to 115 °C (dec.) and 10 to 10000 nM.
The compound `COc1cccc(Cn2c(C(=O)O)c(-c3ccc(C(=O)NC4CC4)cc3)c3ccccc32)c1` [Example 323, 3-[4-(N-cyclopropylcarbamoyl)phenyl]-1-[(3-methoxyphenyl)methyl]indole-2-carboxylic acid] came in with a melting point of 237 °C. In data set [1], the IC50 lay in the range of 10 to 10000 nM.
